Tests used:
[1] = target: T1, phenylethanolamine N-methyltransferase (Oryctolagus cuniculus, UniProt G1TT82); test: In vitro inhibition of phenylethanolamine N-methyltransferase (Pendleton and Snow procedure); format: biochemical; details: for In Vitro Inhibition % at 10^-4: compound concentration 10^-4; for inhibition at 1 µM: compound concentration 10^-6M
T1 construct: from tissue
T1 sequence (G1TT82 1-286): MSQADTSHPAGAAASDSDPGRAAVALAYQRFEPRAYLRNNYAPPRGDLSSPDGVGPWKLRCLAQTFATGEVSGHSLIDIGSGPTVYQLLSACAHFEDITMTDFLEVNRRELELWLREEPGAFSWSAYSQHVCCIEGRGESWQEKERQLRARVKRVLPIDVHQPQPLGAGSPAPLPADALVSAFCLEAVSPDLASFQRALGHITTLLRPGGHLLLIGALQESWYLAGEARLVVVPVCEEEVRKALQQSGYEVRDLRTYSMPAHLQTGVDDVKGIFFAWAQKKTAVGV
Text: For example, following are in vitro results obtained from testing several compounds present in the pharmaceutical compositions and methods of this invention.

PNMT = test: In vivo conversion of 3H-norepinephrine into 3H-epinephrine in rat adrenals after oral dosing (PNMT inhibition); details: rats, 50 mg./kg. three times over 24 hours, tracer 3H-norepinephrine i.v. (tail vein) one hour after last dose, adrenals assayed 45 min later, active if p<0.05
Text: One hour after the last dose the rats are given a tracer dose of ^3 H-norepinephrine into a tail vein. Forty-five minutes later they are sacrificed by decapitation and the adrenals assayed for ^3 H-epinephrine and ^3 H-norepinephrine.

| SMILES | In Vitro Inhibition % at 10^-4 [1] [%] | inhibition at 1 µM [1] [%] | inhibition of the conversion of radioactive norepinephrine into epinephrine (PNMT) |
| --- | --- | --- | --- |
| NC1Cc2ccc([N+](=O)[O-])cc2C1 (stereo not shown) [compound 85391] | 96 | 23 | – |
| NC1Cc2ccc(Br)cc2C1 (stereo not shown) [compound 85347] | 96 | 33 | – |
| NC1Cc2ccc(Cl)cc2C1 (stereo not shown) [compound 85506] | 96 | 37 | – |
| NC1Cc2ccc(S(N)(=O)=O)cc2C1 (stereo not shown) [5-sulfamoyl-2-aminoindane, 5-sulfamyl-2-indanamine] | – | – | significantly inhibited this conversion (p<0.01) |
